Measured values as given in US12410187B2, “Fused tricyclic compounds useful as anticancer agents” (ASTRAZENECA AB, priority 2019, dated 2025).

molecular target: T1, KRasG12C (Homo sapiens, UniProt P01116, G12C); assay: KRasG12C functional assay (HTRF/FRET nucleotide exchange and Raf RBD binding); type: biochemical; conditions: GDP loaded biotinylated KRasG12C, samples incubated for 4 hrs, FRET readout; single experiment or average of two or more; read-out: KRasG12C functional assay IC50
T1 construct: biotin (biotinylated); made in house
Protocol: All enzyme and substrate solutions were prepared in assay buffer containing 20 mM HEPES (pH 7.5), 5 mM MgCl2, 150 mM NaCl, and 0.01% Tween 20. […] In a separate mix 20 nM GST-Raf Ras binding domain (GST-Raf RBD, purified in house) and 4 μg/ml anti-GST XL665 antibody (Cisbio) was prepared in assay buffer containing 50 mM Potassium Fluoride and 0.05 mg/ml BSA and equilibrated for 4 hours before adding 0.6 μM Guanosine 5′-[γ-thio]triphosphate (GTPγS, Sigma) and 0.08 μM SOS (purified in house). 5 μl of the GST-RAF RBD mix was then dispensed into each well of the assay plate. […] This is detected simultaneously via the specific binding interaction between active GTPγS KRas^G12C with GST-Raf RBD which brings the europium and XL665 into close proximity enabling an increased FRET signal to be detected on a Pherastar (BMG) plate reader equipped with the HTRF filter module. […] IC50 values were calculated from normalised dose-response response FRET data curve fitted in Genedata screener (Basel, Switzerland).

T1 sequence (P01116 1-188 isoform P01116-2 G12C): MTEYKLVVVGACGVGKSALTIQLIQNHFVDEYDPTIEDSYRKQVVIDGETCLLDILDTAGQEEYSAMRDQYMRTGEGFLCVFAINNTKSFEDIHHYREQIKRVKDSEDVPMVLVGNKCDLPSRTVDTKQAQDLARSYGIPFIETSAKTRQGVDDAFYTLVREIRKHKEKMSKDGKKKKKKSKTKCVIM

| SMILES | IC50 |
| --- | --- |
| C=CC(=O)N1CCN2Cc3cc(F)c(-c4c(O)cccc4C(F)F)c(F)c3OC[C@H]2C1 (single isomer, unassigned) [Example 53] | 0.66 µM |
| C=CC(=O)N1CCN2Cc3cc(F)c(-c4c(O)cccc4Br)c(F)c3OC[C@H]2C1 (single isomer, unassigned) [Example 59] | 0.032 µM |

same assay, conditions: KRasG12C functional assay IC50, GDP loaded biotinylated KRasG12C, samples incubated for 4 hrs, FRET readout; single experiment or average of two or more

| SMILES | IC50 |
| --- | --- |
| C=CC(=O)N1CCN2Cc3cc(F)c(-c4c(O)cccc4Cl)c(F)c3OC[C@H]2C1 (single isomer, unassigned) [Example 42] | 2.61 µM |
| C=CC(=O)N1CCN2Cc3ccc(-c4c(C)ccc5[nH]ncc45)c(Cl)c3OC[C@H]2C1 (single isomer, unassigned) [Example 10] | 0.332 µM |
| C=CC(=O)N1CCN2Cc3ccc(-c4c(C)ccc5[nH]ncc45)c(Cl)c3OC[C@@H]2C1 (single isomer, unassigned) [Example 4] | 74 µM |
| C=CC(=O)N1CCN2Cc3cc(F)c(-c4c(C)cccc4O)c(F)c3OC[C@H]2C1 (single isomer, unassigned) [Example 45] | 0.066 µM |
| C=CC(=O)N1CCN2C(=O)c3ccc(-c4c(C)ccc5[nH]ncc45)c(Cl)c3OC[C@H]2C1 (single isomer, unassigned) [Example 8] | 0.698 µM |
| C=CC(=O)N1CCN2Cc3cc(F)c(-c4c(O)cccc4Cl)c(F)c3OC[C@H]2C1 (single isomer, unassigned) [Example 43] | 0.033 µM |
| C#Cc1cc2c(c(F)c1-c1c(O)cccc1Cl)OC[C@H]1CN(C(=O)C=C)CCN1C2 (single isomer, unassigned) [Example 76] | 0.0186 µM |
| C=CC(=O)N1CCN2Cc3ccc(-c4c(C)ccc5[nH]ncc45)c(Cl)c3OC[C@@H]2C1 (single isomer, unassigned) [Example 3] | 1.41 µM |
| C=CC(=O)N1CCN2Cc3cc(C#CC)c(-c4c(O)cccc4Cl)c(F)c3OC[C@H]2C1 (single isomer, unassigned) [Example 86] | 0.015 µM |

molecular target: T1, KRasG12C; assay: KRasG12C mass spectrometry adducting assay; type: binding; conditions: test compound final concentration 10 μM, 4 hours reaction with 4 μM GDP loaded biotinylated KRasG12C
Protocol: Enzyme solutions were prepared in assay buffer containing 20 mM HEPES (pH 7.5), 5 mM MgCl2, and 150 mM NaCl. […] The plate was sealed before reading on a Xevo G2 QTOF (Waters) and Acquity LC system (Waters). 10 μl of sample was injected onto a Xbridge BEH300; C4; 3.5 um; 2.1×50 mm column (Waters) running a 3 minute gradient. Blank samples were run in between each test sample.
Data was analysed in Mass Lynx software (Waters), the Total ion count (TIC) trace was used and the eluted protein peak data combined. Using the combined spectrum the data was deconvoluted using MaxEnt1 method. The peak area for apo-protein KRas^G12C (APO) and KRAS+relative cmpd mass (adduct) were measured, and a percentage adduct was calculated using the following calculation: Percent adduct=100*(area of adduct peak/(sum of APO+adduct peaks).
The data from this mass spectrometry adducing assay is presented in the column labelled KRasG12C M.S. Binding Mean adduct % in Table A below.

| SMILES | KRasG12C M.S. Binding Mean adduct % |
| --- | --- |
| C=CC(=O)N1CCN2Cc3cc(F)c(-c4c(O)cccc4Cl)c(F)c3OC[C@H]2C1 (single isomer, unassigned) [Example 42] | 12% |
| C=CC(=O)N1CCN2Cc3ccc(-c4c(C)ccc5[nH]ncc45)c(Cl)c3OC[C@H]2C1 (single isomer, unassigned) [Example 10] | 97% |
| C=CC(=O)N1CCN2Cc3ccc(-c4c(C)ccc5[nH]ncc45)c(Cl)c3OC[C@@H]2C1 (single isomer, unassigned) [Example 4] | 0% |
| C=CC(=O)N1CCN2Cc3cc(F)c(-c4c(C)cccc4O)c(F)c3OC[C@H]2C1 (single isomer, unassigned) [Example 45] | 97% |
| C=CC(=O)N1CCN2C(=O)c3ccc(-c4c(C)ccc5[nH]ncc45)c(Cl)c3OC[C@H]2C1 (single isomer, unassigned) [Example 8] | 91% |
| C=CC(=O)N1CCN2Cc3cc(F)c(-c4c(O)cccc4Cl)c(F)c3OC[C@H]2C1 (single isomer, unassigned) [Example 43] | 95% |
| C=CC(=O)N1CCN2Cc3ccc(-c4c(C)ccc5[nH]ncc45)c(Cl)c3OC[C@@H]2C1 (single isomer, unassigned) [Example 3] | 80% |

test system: MDR1 (Pgp) and BCRP; assay: Blood brain barrier penetrant assessment: efflux ratio in MDCK_MDR1_BCRP cells; type: in vitro ADME; conditions: human, MDCK cells doubly transfected with MDR1 (Pgp) and BCRP, ratio of 2 or less = potential for good BBB penetration, read-out: Hu MDCK-MDR1-BCRP (0.1 uM) Mean Efflux Ratio
Protocol: In order to evaluate blood brain barrier (BBB) penetrant properties the efflux properties of compounds according to the specification was measured in cells transfected with the major efflux pumps expressed in the endothelial cells of the BBB. The assessment of efflux properties was performed using Madin-Darby Canine Kidney (MDCK) cells doubly transfected with MDR1 (Pgp) and BCRP. The transfected cell line, MDCK_MDR1_BCRP, thus expresses the two main efflux pumps that actively serve to exclude transit of compounds across the BBB and the efflux ration from these cell can be measured as described in the literature (Durant et al, Sci. Adv. 2018; eeat:1719). A compound that has an efflux ratio of 2 or less as measured by this technique is identified as having the potential for good BBB penetrant properties (Colclough et al, Drug Disc. Today 2019; 24(5), 1067-73).

| SMILES | efflux ratio at 0.1 uM |
| --- | --- |
| C=CC(=O)N1CCN2Cc3ccc(-c4c(C)ccc5[nH]ncc45)c(Cl)c3OC[C@@H]2C1 (single isomer, unassigned) [Example 4] | 0.9 |
| C=CC(=O)N1CCN2Cc3cc(F)c(-c4c(C)cccc4O)c(F)c3OC[C@H]2C1 (single isomer, unassigned) [Example 45] | 1.3 |
| C=CC(=O)N1CCN2Cc3cc(F)c(-c4c(O)cccc4Cl)c(F)c3OC[C@H]2C1 (single isomer, unassigned) [Example 43] | 0.7 |
| C=CC(=O)N1CCN2Cc3cc(F)c(-c4c(O)cccc4C(F)F)c(F)c3OC[C@H]2C1 (single isomer, unassigned) [Example 53] | 1.5 |
| C=CC(=O)N1CCN2Cc3cc(F)c(-c4c(O)cccc4Br)c(F)c3OC[C@H]2C1 (single isomer, unassigned) [Example 59] | 0.8 |
| C#Cc1cc2c(c(F)c1-c1c(O)cccc1Cl)OC[C@H]1CN(C(=O)C=C)CCN1C2 (single isomer, unassigned) [Example 76] | 0.8 |
| C=CC(=O)N1CCN2Cc3cc(C#CC)c(-c4c(O)cccc4Cl)c(F)c3OC[C@H]2C1 (single isomer, unassigned) [Example 86] | 0.9 |
